Ten compounds from patent US10857138B2, “Pharmaceutical compositions comprising antibacterial agents” (WOCKHARDT LIMITED, priority 2014, dated 2020) can be followed below.

Experiment [1] deals with Klebsiella pneumoniae NCTC 13443 strain producing NDM-1, SHV and TEM beta-lactamase enzymes. Put plainly: Time kill study against K. pneumoniae NCTC 13443. Type of experiment: cell-based. The following applies: for Bacterial count (Log10CFU/ml) 2 hours / Bacterial count (Log10CFU/ml) 4 hours / Bacterial count (Log10CFU/ml) 6 hours / Bacterial count (Log10CFU/ml) 8 hours: each agent at 4 mcg/ml, alone or in combination; for Effect on bacterial count when used alone: used alone at 4 μg/ml, throughout the duration of the study. As for the experimental part:
(§1) In a typical time kill study, the freshly grown cultures were diluted to the required cell density (initial starting inoculum) in Cation adjusted Muller Hinton broth medium (BD, USA). The antibacterial agents (either alone or in combination) at the required concentrations were added into the culture-containing medium. The samples were incubated under shaking condition (120 rpm) at 37° C. Enumeration of viable bacterial count was done every 2 hour by diluting in normal saline and plating on to the Tryptic Soya Agar plates (BD, USA). The plates were incubated for 24 hours to arrive at the viable bacterial count. […] In general, the decrease of 1 Log CFU/ml, corresponds to 90% killing of bacteria. Similarly, 2 Log CFU/ml reductions indicates to 99% killing of bacteria and 3 Log CFU/ml reductions is equal to 99.9% killing of bacteria.
(§2) The assay without any antibacterial agent was taken as control.

The subject of experiment [2] is Klebsiella pneumoniae B 88 strain producing NDM-1, SHV, TEM and CTXM beta-lactamase enzymes. Put plainly: Time kill study against K. pneumoniae B 88. The format is cell-based. More on the design: Effect on bacterial count when used alone: dose or concentration left out as unconfirmed. The settings on record: for Bacterial count (Log10CFU/ml) 2 hours / Bacterial count (Log10CFU/ml) 4 hours / Bacterial count (Log10CFU/ml) 6 hours / Bacterial count (Log10CFU/ml) 8 hours: each agent at 4 mcg/ml, alone or in combination; for Effect on bacterial count when used alone: used alone at 4 mcg/ml, throughout the duration of the study. The method, then:
as §1, §2

`O=C1N2C[C@@H](CC[C@H]2c2nnc(C3CCNCC3)o2)N1OS(=O)(=O)O` [Compound C]: in experiment [1], the “Bacterial count (Log10CFU/ml) 2 hours” value worked out at 8.2 Log10CFU/ml, the “Bacterial count (Log10CFU/ml) 4 hours” value is given as 8.9 Log10CFU/ml, the “Bacterial count (Log10CFU/ml) 6 hours” value was determined as 9 Log10CFU/ml and the “Bacterial count (Log10CFU/ml) 8 hours” value worked out at 9.5 Log10CFU/ml. Moreover, in experiment [1], the “Effect on bacterial count when used alone” value (“Effect on bacterial count” for short) is “not effective to decrease the bacterial count”. Moreover, in experiment [2], the “Bacterial count (Log10CFU/ml) 2 hours” value is given as 8.1 Log10CFU/ml, the “Bacterial count (Log10CFU/ml) 4 hours” value was 8.15 Log10CFU/ml, the “Bacterial count (Log10CFU/ml) 6 hours” value is 8.65 Log10CFU/ml and the “Bacterial count (Log10CFU/ml) 8 hours” value is 8.9 Log10CFU/ml. Also, the “Effect on bacterial count” value in experiment [2] is “not effective to decrease the bacterial count”.
As to `C[C@@H](O)[C@H]1C(=O)N2C(C(=O)O)=C(SCCN=CN)C[C@H]12` [Imipenem, reference compound], in experiment [1], the “Bacterial count (Log10CFU/ml) 2 hours” value amounted to 8.35 Log10CFU/ml, the “Bacterial count (Log10CFU/ml) 4 hours” value amounted to 8.78 Log10CFU/ml, the “Bacterial count (Log10CFU/ml) 6 hours” value amounted to 8.88 Log10CFU/ml and the “Bacterial count (Log10CFU/ml) 8 hours” value is 9.09 Log10CFU/ml. Moreover, in experiment [2], the “Bacterial count (Log10CFU/ml) 2 hours” value worked out at 8.28 Log10CFU/ml, the “Bacterial count (Log10CFU/ml) 4 hours” value is 8.7 Log10CFU/ml, the “Bacterial count (Log10CFU/ml) 6 hours” value turned out to be 8.9 Log10CFU/ml and the “Bacterial count (Log10CFU/ml) 8 hours” value is 9.2 Log10CFU/ml.
On to `NC(=O)c1nnc([C@@H]2CC[C@@H]3CN2C(=O)N3OS(=O)(=O)O)o1` [Compound B], for which, in experiment [1], the “Bacterial count (Log10CFU/ml) 2 hours” value is on record as 8.3 Log10CFU/ml, the “Bacterial count (Log10CFU/ml) 4 hours” value turned out to be 8.5 Log10CFU/ml, the “Bacterial count (Log10CFU/ml) 6 hours” value amounted to 8.8 Log10CFU/ml and the “Bacterial count (Log10CFU/ml) 8 hours” value is on record as 8.9 Log10CFU/ml. For the same compound, the “Effect on bacterial count” value in experiment [1] was “not effective to decrease the bacterial count”. For the same compound, in experiment [2], the “Bacterial count (Log10CFU/ml) 2 hours” value is listed as 7.98 Log10CFU/ml, the “Bacterial count (Log10CFU/ml) 4 hours” value came out at 8.2 Log10CFU/ml, the “Bacterial count (Log10CFU/ml) 6 hours” value is recorded as 8.50 Log10CFU/ml and the “Bacterial count (Log10CFU/ml) 8 hours” value stood at 8.9 Log10CFU/ml. The “Effect on bacterial count” value in experiment [2] is on record as “not effective to decrease the bacterial count”.
In the case of `C[C@H](N)c1nnc([C@@H]2CC[C@@H]3CN2C(=O)N3OS(=O)(=O)O)o1` [Compound I, trans-sulphuric acid mono-[2-(5-((S)-1-amino-ethyl)-[1,3,4]-oxadiazol-2-yl)-7-oxo-1,6-diazabicyclo[3.2.1]-octan-6-yl] ester], in experiment [1], the “Bacterial count (Log10CFU/ml) 2 hours” value is given as 8.36 Log10CFU/ml, the “Bacterial count (Log10CFU/ml) 4 hours” value is on record as 8.79 Log10CFU/ml, the “Bacterial count (Log10CFU/ml) 6 hours” value was 8.9 Log10CFU/ml and the “Bacterial count (Log10CFU/ml) 8 hours” value is reported as 9.1 Log10CFU/ml. In addition, the “Effect on bacterial count” value in experiment [1] was “not effective to decrease the bacterial count”. In experiment [2], the “Bacterial count (Log10CFU/ml) 2 hours” value amounted to 8.36 Log10CFU/ml, the “Bacterial count (Log10CFU/ml) 4 hours” value was found to be 8.79 Log10CFU/ml, the “Bacterial count (Log10CFU/ml) 6 hours” value is on record as 8.9 Log10CFU/ml and the “Bacterial count (Log10CFU/ml) 8 hours” value turned out to be 9.1 Log10CFU/ml. Further, the “Effect on bacterial count” value in experiment [2] is reported as “not effective to decrease the bacterial count”.
For `C[C@H]1[C@H](NC(=O)/C(=N\OC(C)(C)C(=O)O)c2csc(N)n2)C(=O)N1S(=O)(=O)O` [Aztreonam, reference compound], in experiment [1], the “Bacterial count (Log10CFU/ml) 2 hours” value is given as 8.38 Log10CFU/ml, the “Bacterial count (Log10CFU/ml) 4 hours” value was 8.65 Log10CFU/ml, the “Bacterial count (Log10CFU/ml) 6 hours” value is given as 9.02 Log10CFU/ml and the “Bacterial count (Log10CFU/ml) 8 hours” value is recorded as 9.55 Log10CFU/ml. Also, the “Effect on bacterial count” value in experiment [1] was “not effective to decrease the bacterial count”. Also, in experiment [2], the “Bacterial count (Log10CFU/ml) 2 hours” value is 8.16 Log10CFU/ml, the “Bacterial count (Log10CFU/ml) 4 hours” value was determined as 8.7 Log10CFU/ml, the “Bacterial count (Log10CFU/ml) 6 hours” value is reported as 8.88 Log10CFU/ml and the “Bacterial count (Log10CFU/ml) 8 hours” value was 9.04 Log10CFU/ml. In addition, the “Effect on bacterial count” value in experiment [2] is reported as “not effective to decrease the bacterial count”.
In the case of `O=C(NNC(=O)[C@@H]1CC[C@@H]2CN1C(=O)N2OS(=O)(=O)O)[C@@H]1CCCNC1` [Compound E, (2S,5R)-7-Oxo-6-sulphooxy-2-[N′—((R)-piperidine-3-carbonyl)-hydrazinocarbonyl]-1,6-diaza-bicyclo[3.2.1]octane], in experiment [1], the “Bacterial count (Log10CFU/ml) 2 hours” value is 8.35 Log10CFU/ml, the “Bacterial count (Log10CFU/ml) 4 hours” value is given as 8.6 Log10CFU/ml, the “Bacterial count (Log10CFU/ml) 6 hours” value is recorded as 8.8 Log10CFU/ml and the “Bacterial count (Log10CFU/ml) 8 hours” value was 8.9 Log10CFU/ml. For the same compound, in experiment [1], the “Effect on bacterial count” value is recorded as “not effective to decrease the bacterial count”. Also, in experiment [2], the “Bacterial count (Log10CFU/ml) 2 hours” value is 7.9 Log10CFU/ml, the “Bacterial count (Log10CFU/ml) 4 hours” value worked out at 8.3 Log10CFU/ml, the “Bacterial count (Log10CFU/ml) 6 hours” value is 8.8 Log10CFU/ml and the “Bacterial count (Log10CFU/ml) 8 hours” value stood at 8.9 Log10CFU/ml. Further, the “Effect on bacterial count” value in experiment [2] is listed as “not effective to decrease the bacterial count”.
As to `N#C[C@@H]1CC[C@@H]2CN1C(=O)N2OS(=O)(=O)[O-].[Na+]` [Compound A, Sodium salt of trans-7-oxo-6-sulphooxy-1,6-diazabicyclo[3.2.1]-octane-2-carbonitrile], in experiment [1], the “Bacterial count (Log10CFU/ml) 2 hours” value is reported as 8.3 Log10CFU/ml, the “Bacterial count (Log10CFU/ml) 4 hours” value worked out at 8.5 Log10CFU/ml, the “Bacterial count (Log10CFU/ml) 6 hours” value amounted to 8.8 Log10CFU/ml and the “Bacterial count (Log10CFU/ml) 8 hours” value was found to be 9 Log10CFU/ml. Moreover, the “Effect on bacterial count” value in experiment [1] is “not effective to decrease the bacterial count”. Further, in experiment [2], the “Bacterial count (Log10CFU/ml) 2 hours” value is recorded as 8 Log10CFU/ml, the “Bacterial count (Log10CFU/ml) 4 hours” value turned out to be 8.2 Log10CFU/ml, the “Bacterial count (Log10CFU/ml) 6 hours” value came out at 8.5 Log10CFU/ml and the “Bacterial count (Log10CFU/ml) 8 hours” value came out at 8.8 Log10CFU/ml. Moreover, the “Effect on bacterial count” value in experiment [2] was “not effective to decrease the bacterial count”.
With `O=C(NOC[C@@H]1CCCCN1)[C@@H]1CC[C@@H]2CN1C(=O)N2OS(=O)(=O)O` [Compound H, (2S,5R)-7-Oxo-N-[(2S)-piperidine-2-ylmethyloxy]-6-(sulfooxy)-1,6-diazabicyclo[3.2.1]octane-2-carboxamide], in experiment [1], the “Bacterial count (Log10CFU/ml) 2 hours” value came to 8.35 Log10CFU/ml, the “Bacterial count (Log10CFU/ml) 4 hours” value was 8.48 Log10CFU/ml, the “Bacterial count (Log10CFU/ml) 6 hours” value worked out at 8.9 Log10CFU/ml and the “Bacterial count (Log10CFU/ml) 8 hours” value stood at 9.1 Log10CFU/ml. The “Effect on bacterial count” value in experiment [1] is “not effective to decrease the bacterial count”. In experiment [2], the “Bacterial count (Log10CFU/ml) 2 hours” value is reported as 8.15 Log10CFU/ml, the “Bacterial count (Log10CFU/ml) 4 hours” value is recorded as 8.3 Log10CFU/ml, the “Bacterial count (Log10CFU/ml) 6 hours” value is given as 8.65 Log10CFU/ml and the “Bacterial count (Log10CFU/ml) 8 hours” value is 8.98 Log10CFU/ml. The “Effect on bacterial count” value in experiment [2] is “not effective to decrease the bacterial count”.
With `O=C(NNC(=O)[C@@H]1CC[C@@H]2CN1C(=O)N2OS(=O)(=O)O)[C@@H]1CCNC1` [Compound G, (2S,5R)-7-Oxo-6-sulphooxy-2-[N′—((R)-pyrrolidine-3-carbonyl)-hydrazinocarbonyl]-1,6-diaza-bicyclo[3.2.1]octane], in experiment [1], the “Bacterial count (Log10CFU/ml) 2 hours” value is listed as 8.36 Log10CFU/ml, the “Bacterial count (Log10CFU/ml) 4 hours” value stood at 8.78 Log10CFU/ml, the “Bacterial count (Log10CFU/ml) 6 hours” value came out at 8.9 Log10CFU/ml and the “Bacterial count (Log10CFU/ml) 8 hours” value turned out to be 9.2 Log10CFU/ml. For the same compound, the “Effect on bacterial count” value in experiment [1] is listed as “not effective to decrease the bacterial count”. In experiment [2], the “Bacterial count (Log10CFU/ml) 2 hours” value worked out at 7.95 Log10CFU/ml, the “Bacterial count (Log10CFU/ml) 4 hours” value amounted to 8.05 Log10CFU/ml, the “Bacterial count (Log10CFU/ml) 6 hours” value is 8.7 Log10CFU/ml and the “Bacterial count (Log10CFU/ml) 8 hours” value was 8.98 Log10CFU/ml. In addition, in experiment [2], the “Effect on bacterial count” value is listed as “not effective to decrease the bacterial count”.
As for `O=C(NOC[C@@H]1CCCN1)[C@@H]1CC[C@@H]2CN1C(=O)N2OS(=O)(=O)O` [Compound F, (2S,5R)-7-Oxo-N-[(2S)-pyrrolidin-2-ylmethoxy]-6-(sulfooxy)-1,6-diaza bicyclo[3.2.1]octane-2-carboxamide], in experiment [1], the “Bacterial count (Log10CFU/ml) 2 hours” value is 8.4 Log10CFU/ml, the “Bacterial count (Log10CFU/ml) 4 hours” value turned out to be 8.7 Log10CFU/ml, the “Bacterial count (Log10CFU/ml) 6 hours” value was determined as 8.9 Log10CFU/ml and the “Bacterial count (Log10CFU/ml) 8 hours” value is 9.1 Log10CFU/ml. In addition, the “Effect on bacterial count” value in experiment [1] is recorded as “not effective to decrease the bacterial count”. In experiment [2], the “Bacterial count (Log10CFU/ml) 2 hours” value is recorded as 8 Log10CFU/ml, the “Bacterial count (Log10CFU/ml) 4 hours” value is 8.2 Log10CFU/ml, the “Bacterial count (Log10CFU/ml) 6 hours” value amounted to 8.35 Log10CFU/ml and the “Bacterial count (Log10CFU/ml) 8 hours” value is on record as 8.7 Log10CFU/ml. The “Effect on bacterial count” value in experiment [2] was “not effective to decrease the bacterial count”.
